Reference: patent US12653860B2, “Compositions and methods for editing beta-globin for treatment of hemaglobinopathies” (Vertex Pharmaceuticals Incorporated, priority 2019, dated 2026)
Strand notation (5' to 3'): a small letter for the sugar, then the base; units joined by * are phosphorothioate-linked, units joined directly phosphodiester-linked; [ ] holds rarer units or linkages, { } end groups; capitals alone tell only the bases. m = 2'-O-methyl; r = 2'-OH (RNA)

Tests used:
[1] = test system: HBB gene locus in CD34-expressing LT-HSPCs; test: HDR efficiency at HBB gene with R02 RNP+AAV.307 and DNA-PK inhibitors, NGS; assay type: cell-based, human
Description: (§1) Editing was performed as described above. However, the cells were electroporated with AAV.307 administered 1 hour prior to electroporation at a dose of 10,000 MOI. The cells were electroporated with compound 296 at a concentration ranging from 0.005 μM to 10 μM, with compound 984 at a concentration ranging from 0.005 μM to […], or with 1 μg i53 mRNA. Negative control cells were electroporated with RNP+AAV only or RNP only.
(§2) Edited cells were evaluated for viability as described above, and for incorporation of gene-edits at 2 days post-electroporation. […] The frequency of INDELs induced at the R02 cut site was also evaluated by NGS analysis.

[2] = test system: HBB gene locus in CD34-expressing LT-HSPCs; test: INDEL frequency and species at R02 cut site with DNA-PK inhibitors, NGS; assay type: cell-based, human
Description: as §1, §2
The INDELs species identified for cells edited in Experiment 2 were further evaluated to determine frequency of repair by NHEJ or MMEJ repair pathways. An INDEL of 1 nt was considered due to NHEJ repair; a deletion of −9 nt was considered due to MMEJ repair based on the microhomology present on either side of the R02 cut site. Based on percentage of total reads corresponding to these INDEL species, the ratio of gene edits due to NHEJ and MMEJ repair was evaluated.

CD34-expressing LT-HSPCs = test: Viability of edited LT-HSPCs by Tryphan Blue staining; assay type: cell-based, human
Description: (§3) Edited cells were evaluated for GFP fluorescence on day 2 post-editing using flow cytometry, and viability was determined via staining with Tryphan Blue.
as §2

[3] = target: DNA-PK catalytic subunit (DNA-PKcs) (Homo sapiens, UniProt P78527); details: reported, U.S. Pat. No. 9,592,232; cited from earlier work
[4] = test system: HBB gene locus in CD34-expressing LT-HSPCs; test: HDR insertion of GFP donor at HBB gene locus with DNA-PK inhibitor (percentage of cells expressing GFP); assay type: cell-based, human; details: for level of HDR repair (cells expressing GFP): day 2 post-editing, FIG. 37A
Description: The effect of DNA-PK inhibition using Compound 296 was compared to the effect of 53BP1 inhibition using i53 for increased HDR repair of the HBB gene locus with donor DNA encoding GFP.
The efficiency of HDR for repair of the HBB gene with donor encoding GFP was determined by measuring the percentage of cells expressing GFP following electroporation.
as §3

[5] = test system: BFP gene encoded in the AAVS1 locus of HEK293 T cells; test: BFP to GFP reporter assay of HDR repair (flow cytometry); assay type: cell-based; details: different concentrations or doses; FIG. 1B, 1C
Description: An in vitro assay was conducted to determine the ability of various inhibitors and enhancers to improve the efficiency of HDR repair in HEK293 T cells. Specifically, a fluorescent reporter-based screening approach was developed to identify molecules that enhance gene-editing by HDR. A reporter system was generated in HEK293 T cells comprising a genomic AAVS1 locus that encoded either a blue fluorescent protein (BFP) or a green fluorescent protein (GFP) within the AAVS1 locus. A gene encoding BFP can be converted to a gene encoding GFP by substitution of cytosine at position 199 to uridine (e.g., a C to U transition at position 199). By introducing a DSB within the BFP gene using a CRISPR/Cas9 gene-editing system, a homology donor DNA encoding the nucleotide substitution can be used to edit the BFP gene to a GFP gene by HDR repair. Thus, a gene edit that induces a C to U transition at position 199 results in a change in cellular fluorescence. A change in the fluorescence of the cell measured by flow cytometry can be used to quantify efficiency of HDR repair. Additionally, the reverse gene edit can be performed for an AAVS1 locus encoding a GFP gene, wherein a GFP can be converted to BFP by substitution of uridine at position 199 to cytosine.
To create the reporter system, an AAV-based homology donor DNA encoding either BFP or GFP was created. The AAV-BFP or AAV-GFP donor was flanked by homology arms that were 1000 base pairs in length and expression of BFP or GFP was driven by the MND promoter (e.g., a synthetic promoter that contains the U3 region of a modified Moloney murine leukemia virus long term terminal repeat with myeloproliferative sarcoma virus enhancer and deleted negative control region, SEQ ID NO: 58). The viral DNA was packaged into capsids of adeno-associated virus serotype 6 (AAV6) vector. Either the BFP or GFP donor was introduced using the AAV6 vector into the AAVS1 locus in HEK293 T cells by homologous recombination using CRISPR-Cas9 as follows: purified Cas9 protein was complexed with two different single gRNAs (sgRNAs) targeting the AAVS1 locus at SEQ ID NO: 3 (spacer sequence identified by SEQ ID NO: 4; gRNA obtained from Maxcyte) or SEQ ID NO: 5 (spacer sequence identified by SEQ ID NO: 6; gRNA obtained from Thermo Fisher). Cas9 protein used in the Exemplary section provided herein refers to Cas9 polypeptide derived from S pyogenes (SpCas9), unless indicated otherwise.
The Cas9-sgRNA complex was electroporated into the HEK293 T cells using the Lonza Nucleofector program CM-130. Approximately, 2 hours after electroporation, the cells were infected with various viral doses of AAV6 encoding a BFP (SEQ ID NO: 44) or GFP homology donor (SEQ ID NO: 47). One week later, cells were analyzed by flow cytometry to verify integration and expression of BFP or GFP in the AAVS1 locus. HEK293 T cells expressing BFP or GFP were sorted into single cells in 96-well plates. After −2 weeks of growth, DNA extracted from individual cells was analyzed for precise integration of the respective BFP or GFP gene into the AAVS1 locus by long-range PCR. This PCR analysis allowed for determination of whether the BFP/GFP gene was integrated in one or both alleles of the AAVS1 locus.
To introduce a gene edit that converts BFP to GFP, cells were electroporated with ribonucleoprotein (RNP) comprised of Cas9 and sgRNA that targets the BFP gene encoded in the AAVS1 locus. The sgRNA targeted a sequence in the BFP gene identified by SEQ ID NO: 7 (sgRNA spacer sequence identified by SEQ ID NO: 8). The sgRNA were prepared using a standard sgRNA cassette specific to SpCas9, as indicated by SEQ ID NO: 2 (wherein a, c, g, u represent 2′ O-methyl phosphorothioate nucleotides; s represents phosphorothioate nucleotides; and A, C, G, U, N represent canonical RNA nucleotides). The gRNAs used in the Exemplary section provided herein were sgRNAs prepared with the SpCas9 sgRNA cassette unless indicated otherwise. […]

[6] = test system: HBB locus in CD34-expressing LT-HSPCs; test: HDR insertion of AAV GFP donor at HBB locus (GFP fluorescence); assay type: cell-based, human; details: i53 mRNA 0.5, 1, 2 g (FIG. 6A) or 0.3 g, 1 g (FIG. 6B); CYREN1 or CYREN2 mRNA; any dose of XL413 (data not shown)
Description: Frozen CD34-expressing LT-HSPCs derived from plerixafor (i.e., Mozibil®)+GCSF-dual mobilized peripheral blood obtained from healthy human donors were purchased from a commercial vendor. LT-HSPCs were maintained in culture media comprised of the reagents shown in Table 4 and were incubated at 37° C., 5% carbon dioxide, 4% oxygen. […] 2×10^5 cells were edited with 3 g Cas9 and 3 g gRNA. The target gene sequence (including target sequence with PAM), R02 spacer sequence, and R02 sgRNA sequence are identified in Table 3.
The cells were transfected with a dsDNA homology donor encoding GFP under a SFFV promoter (SEQ ID NO: 60) that was delivered by AAV (SEQ ID NO: 56). […] The HDR efficiency was determined by measuring the level of GFP fluorescence in the cells following electroporation. To determine the effect of 53BP1 inhibition on HDR efficiency, the 53BP1 inhibitor i53 was introduced as an mRNA-encoded protein to the cells during electroporation with Cas9/gRNA RNP and AAV DNA that serves as a donor for homology directed repair.
The effect of 53BP1 inhibition on HDR efficiency was compared to other mRNA-encoded proteins that inhibit the NHEJ pathway. These included the proteins CYREN1 and CYREN2 that inhibit Ku70/80, a heterodimer that binds DNA blunt ends to prevent processing of 3′ single-stranded DNA tails necessary for HDR repair. Cells were electroporated with RNP, an AAV-GFP homology donor and mRNA encoding either i53 (mRNA ORF shown in SEQ ID NO: 69), CYREN1, or CYREN2.
The effect of treatment with i53 and Nu7441 was compared for improving efficiency of HDR repair of the HBB locus. Cells were treated with different doses of Nu7441 or with mRNA encoding i53 (ORF shown by SEQ ID NO: 69).

genomic DNA = test: GUIDE-Seq screen of candidate off-target sites; assay type: cell-based
Source text: The second approach was to screen candidate off-target sites using GUIDE-Seq (see, e.g., Tsai et al (2015) NAT BIOTECHNOL. 33:187). Based on this approach, 36 sites in the genomic DNA were identified as undergoing off-target CRISPR/Cas9 cleavage using the R02 gRNA.

Molecule: [2H]c1nc(C)nc([2H])c1-c1cc(NC[C@@H](C)c2cccc3c(C(=O)NC)ccnc23)ncn1 [Compound 984]
- HDR efficiency ([1]; 3.3 μM or 10 μM, R02 RNP+AAV.307, FIGS. 39A-39B): > 80%
- level of HDR repair ([1]; 0.37-10 μM, FIGS. 39A-39B): high
- frequency of INDELs, fold reduced compared to R02 RNP only ([2]; 3.3 μM or 10 μM, FIGS. 39A-39B): approximately 8 fold
- viability following editing (CD34-expressing LT-HSPCs; particularly at minimal effective concentrations): good viability
- affinity and selectivity for DNA-PK [3]: high affinity and selectivity

Molecule: CNC(=O)c1ccnc2c([C@H](C)CNc3cc(-c4cnc(C)nc4)ncn3)cccc12 [Compound 296]
- HDR efficiency ([1]; 3.3 μM, R02 RNP+AAV.307): 80%
- HDR efficiency, fold higher than R02 RNP+AAV only ([1]; 0.37-10 μM): at least 1.6 fold
- level of HDR repair ([1]; 0.37-10 M, R02 RNP+AAV.307, FIGS. 38A-38B): ≥ 70%
- frequency of INDELs, fold reduced compared to R02 RNP only ([2]; 0.37-10 μM): at least 4.6 fold
- INDEL species due to MMEJ repair (−9 nt deletion) ([2]; Experiment 2, FIG. 38D): only a modest reduction
- fold decrease in INDELs due to NHEJ repair (INDEL of 1 nt) ([2]; Experiment 2, FIG. 38D): ≤ 30 fold
- viability of edited cells (CD34-expressing LT-HSPCs; AAV.307, each concentration used, Experiment 2, FIG. 38C): > 80%
- viability of edited cells (CD34-expressing LT-HSPCs; GFP donor, each concentration evaluated (0.014 μM to 10 μM), FIG. 37A): > 80%
- affinity and selectivity for DNA-PK [3]: high affinity and selectivity
- level of HDR repair vs i53 mRNA ([4]; 1.1 μM, 3.3 μM, or 10 μM, FIG. 37B): comparable to cells edited with i53 mRNA
- level of HDR repair (cells expressing GFP) ([4]; 1.1 μM): 53.5%
- level of HDR repair (cells expressing GFP) ([4]; 3.3 μM): 56.5%
- level of HDR repair (cells expressing GFP) ([4]; 10 μM): 55.9%

Molecule: CCCCCCNC(=O)Nc1ccc(S(=O)(=O)Nc2ccc(CCNC[C@H](O)COc3ccc(O)cc3)cc2)cc1 [L755,507]
- HDR efficiency (improvement) [5]: no improvement in HDR efficiency

Molecule: C[C@]1(c2nc3c(C(N)=O)cccc3[nH]2)CCCN1 [Veliparib]
- HDR efficiency (improvement) [5]: no improvement in HDR efficiency

Molecule: Cl.O=c1[nH]c([C@@H]2CCCN2)nc2c1oc1ccc(Cl)cc12 [XL413]
- HDR efficiency vs RNP+AAV-only [6]: no improvement in HDR efficiency

B1: R02 gRNA: sgRNA targeting the HBB locus, SEQ ID NO: 17 (spacer SEQ ID NO: 16) (nucleic acid)
guide: mC*mU*mU*rGrCrCrCrCrArCrArGrGrGrCrArGrUrArArGrUrUrUrUrArGrArGrCrUrArGrArArArUrArGrCrArArGrUrUrArArArArUrArArGrGrCrUrArGrUrCrCrGrUrUrArUrCrArArCrUrUrGrArArArArArGrUrGrGrCrArCrCrGrArGrUrCrGrGrUrGrCmU*mU*mU*rU
- number of genomic sites identified as undergoing off-target CRISPR/Cas9 cleavage (genomic DNA): 36
